Reference: ChEMBL document CHEMBL1147620, “Estrogen receptor ligands. Part 1: The discovery of flavanoids with subtype selectivity” (Bioorg Med Chem Lett, 2004)

Assays:
[1] = biological target: Estrogen receptor beta (Homo sapiens, UniProt Q92731)
Description: Binding affinity against human estrogen receptor beta (ER beta) in competitive binding assay

[2] = biological target: T1, Estrogen receptor (Homo sapiens, UniProt P03372)
T1 sequence (P03372 whole entry): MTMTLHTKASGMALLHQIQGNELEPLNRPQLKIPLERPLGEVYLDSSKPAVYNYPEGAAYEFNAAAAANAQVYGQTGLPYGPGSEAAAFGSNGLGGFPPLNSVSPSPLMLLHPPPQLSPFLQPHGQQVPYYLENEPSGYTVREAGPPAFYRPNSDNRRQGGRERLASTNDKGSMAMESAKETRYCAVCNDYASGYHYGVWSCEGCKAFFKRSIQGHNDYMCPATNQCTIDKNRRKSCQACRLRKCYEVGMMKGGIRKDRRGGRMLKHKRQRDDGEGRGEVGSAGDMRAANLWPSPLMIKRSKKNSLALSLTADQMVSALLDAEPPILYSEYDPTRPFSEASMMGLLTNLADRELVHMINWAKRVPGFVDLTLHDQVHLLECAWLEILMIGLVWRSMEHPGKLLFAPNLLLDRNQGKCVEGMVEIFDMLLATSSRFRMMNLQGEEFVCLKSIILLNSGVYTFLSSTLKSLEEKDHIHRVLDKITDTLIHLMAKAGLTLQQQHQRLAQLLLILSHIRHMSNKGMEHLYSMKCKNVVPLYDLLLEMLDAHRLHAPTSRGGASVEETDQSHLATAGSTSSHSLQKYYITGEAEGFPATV
Description: Binding affinity against human estrogen receptor alpha in competitive binding assay

Sequence of Estrogen receptor beta (Q92731 whole entry): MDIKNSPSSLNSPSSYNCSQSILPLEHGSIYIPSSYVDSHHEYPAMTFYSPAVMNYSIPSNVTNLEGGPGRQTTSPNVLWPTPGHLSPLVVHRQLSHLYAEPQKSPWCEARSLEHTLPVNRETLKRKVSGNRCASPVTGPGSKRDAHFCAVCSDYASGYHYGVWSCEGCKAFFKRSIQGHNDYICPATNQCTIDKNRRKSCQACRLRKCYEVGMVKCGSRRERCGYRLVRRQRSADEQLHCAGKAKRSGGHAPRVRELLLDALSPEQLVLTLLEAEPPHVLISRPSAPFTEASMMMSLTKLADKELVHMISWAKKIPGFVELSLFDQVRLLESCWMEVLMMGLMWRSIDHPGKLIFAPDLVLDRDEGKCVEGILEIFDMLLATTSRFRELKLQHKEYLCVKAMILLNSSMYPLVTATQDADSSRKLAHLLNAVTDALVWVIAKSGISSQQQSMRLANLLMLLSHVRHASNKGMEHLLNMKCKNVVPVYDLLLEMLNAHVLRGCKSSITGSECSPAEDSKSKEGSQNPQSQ

Row | SMILES | IC50 [1] | IC50 [2]
1 | O=C1c2ccc(O)cc2O[C@H](c2ccc(O)cc2)[C@@H]1c1ccc(O)cc1 | 598 nM | 490 nM
2 | CCCc1cc(O)cc2c1C(=O)[C@@H](c1ccc(O)cc1)[C@@H](c1ccc(OCCN3CCCCC3)cc1)O2 | 207 nM | 652 nM
3 | O=C1c2c(Cl)cc(O)cc2O[C@H](c2ccc(OCCN3CCCCC3)cc2)[C@@H]1c1ccc(O)cc1 | 1270 nM | 58 nM
4 | O=C1c2c(F)cc(O)cc2O[C@H](c2ccc(OCCN3CCCCC3)cc2)[C@@H]1c1ccc(O)cc1 | 5390 nM | 105 nM
5 | COc1cc(O)ccc1[C@@H]1C(=O)c2ccc(O)cc2O[C@@H]1c1ccc(OCCN2CCCCC2)cc1 | 1360 nM | 149 nM
6 | Oc1ccc([C@@H]2Cc3ccc(O)cc3O[C@@H]2c2ccc(OCCN3CCCCC3)cc2)cc1 | 8.9 nM | 6.7 nM
7 | Oc1ccc([C@H]2[C@@H](c3ccc(OCCN4CCCCC4)cc3)Oc3cc(O)ccc3[C@@H]2O)cc1 | 7000 nM | 929 nM
8 | O=C1c2ccccc2O[C@H](c2ccc(OCCN3CCCCC3)cc2)[C@@H]1c1ccc(O)cc1 | 510 nM | 179 nM
9 | CCCCCc1cc(O)cc2c1C(=O)[C@@H](c1ccc(O)cc1)[C@@H](c1ccc(OCCN3CCCCC3)cc1)O2 | 454 nM | 71 nM
10 | CCc1cc(O)cc2c1C(=O)[C@@H](c1ccc(O)cc1)[C@@H](c1ccc(OCCN3CCCCC3)cc1)O2 | 152 nM | 68 nM
11 | Cc1cc(O)cc2c1C(=O)[C@@H](c1ccc(O)cc1)[C@@H](c1ccc(OCCN3CCCCC3)cc1)O2 | 546 nM | 14 nM
12 | O/N=C1\c2ccc(O)cc2O[C@H](c2ccc(OCCN3CCCCC3)cc2)[C@@H]1c1ccc(O)cc1 | 8610 nM | 1040 nM
13 | COc1cc([C@@H]2C(=O)c3ccc(O)cc3O[C@@H]2c2ccc(OCCN3CCCCC3)cc2)ccc1O | > 10000 nM | 413 nM

The next lines start with the values.

Row | IC50 [1] | IC50 [2] | SMILES
14 | 2050 nM | 31 nM | O=C1c2ccc(O)cc2O[C@H](c2ccc(OCCN3CCCCC3)cc2)[C@@H]1c1ccc(O)cc1
15 | 5640 nM | 3560 nM | C[C@@H]1C(=O)c2ccc(O)cc2O[C@@H]1c1ccc(OCCN2CCCCC2)cc1
16 | 1950 nM | 49 nM | O=C1c2ccc(O)cc2O[C@H](c2ccc(OCCN3CCCCC3)cc2)[C@H]1c1ccc(O)cc1
17 | 930 nM | 109 nM | CC(C)[C@H]1C(=O)c2ccc(O)cc2O[C@@H]1c1ccc(OCCN2CCCCC2)cc1
18 | 1200 nM | 89 nM | CC(C)[C@@H]1C(=O)c2ccc(O)cc2O[C@@H]1c1ccc(OCCN2CCCCC2)cc1
19 | 10000 nM | 531 nM | O=C1c2ccc(O)cc2O[C@H](c2ccc(OCCN3CCCCC3)cc2)[C@@H]1c1ccccc1
20 | 1200 nM | 551 nM | C[C@@H]1C(=O)c2c(O)cc(O)cc2O[C@@H]1c1ccc(OCCN2CCCCC2)cc1
21 | > 10000 nM | 1410 nM | C[C@H]1C(=O)c2ccc(O)cc2O[C@@H]1c1ccc(OCCN2CCCCC2)cc1
22 | > 10000 nM | 1050 nM | Cc1cc([C@@H]2C(=O)c3ccc(O)cc3O[C@@H]2c2ccc(OCCN3CCCCC3)cc2)cc(C)c1O
